The structures appear in SMILES notation.

Results on eleven compounds are retold here after patent publication US9371336B2, “Compounds for treating spinal muscular atrophy” (PTC Therapeutics Inc., priority 2012, dated 2016).

In experiment [1] the test system is SMN2 minigene mRNA (SMN2-A minigene construct). In words: SMN2 minigene mRNA splicing RT-qPCR assay in cultured cells. The class given is cell-based, human. Particulars: Homo sapiens, HEK293-H; HEK293H cells stably transfected with SMN2-A minigene, 24 hours, 7-point concentration data; concentration giving 1.5-fold SMN2 full length mRNA relative to vehicle-treated cells; read-out: EC1.5x for production of full length SMN2 mRNA. The protocol: The reverse transcription-quantitative PCR-based (RT-qPCR) assay is used to quantify the level of the full length SMN2 minigene mRNA containing SMN2 exon 7 in a HEK293H cell line stably transfected with said minigene and treated with a test compound.
HEK293H cells stably transfected with the SMN2-A minigene construct described above (10,000 cells/well) are seeded in 200 μL of cell culture medium (DMEM plus 10% FBS, with 200 μg/mL hygromycin) in 96-well flat-bottom plates and the plate is immediately swirled to ensure proper dispersal of cells, forming an even monolayer of cells. Cells are allowed to attach for at least 4-6 hours. Test compounds are serially diluted 3.16-fold in 100% DMSO to generate a 7-point concentration curve. A solution of test compound (1 μL, 200× in DMSO) is added to each cell-containing well and the plate is incubated for 24 hours in a cell culture incubator (37° C., 5% CO2, 100% relative humidity). Two replicates are prepared for each test compound concentration. The cells are then lysed in Cells-To-Ct lysis buffer and the lysate is stored at −80° C.
Primer SMN Forward A (SEQ ID NO. 1) hybridizes to a nucleotide sequence in exon 7 (nucleotide 22 to nucleotide 40), primer SMN Reverse A (SEQ ID NO. 2) hybridizes to a nucleotide sequence in the coding sequence of Firefly luciferase, SMN Probe A (SEQ ID NO. 3) hybridizes to a nucleotide sequence in exon 7 (nucleotide 50 to nucleotide 54) and exon 8 (nucleotide 1 to nucleotide 21). The combination of these three oligonucleotides detects only SMN1 or SMN2 minigenes (RT-qPCR) and will not detect endogenous SMN1 or SMN2 genes.
The SMN forward and reverse primers are used at final concentrations of 0.4 μM. The SMN probe is used at a final concentration of 0.15 μM. The GAPDH primers are used at final concentrations of 0.2 μM and the probe at 0.15 μM.
The SMN2-minigene GAPDH mix (15 μL total volume) is prepared by combining 7.5 μL of 2×RT-PCR buffer, 0.4 μL of 25×RT-PCR enzyme mix, 0.75 μL of 20×GAPDH primer-probe mix, 4.0075 μL of water, 2 μL of 10-fold diluted cell lysate, 0.06 μL of 100 μM SMN forward primer, 0.06 μL of 100 μM SMN reverse primer, and 0.225 μL of 100 μM SMN probe.
PCR is carried out at the following temperatures for the indicated time: Step 1: 48° C. (15 min); Step 2: 95° C. (10 min); Step 3: 95° C. (15 sec); Step 4: 60° C. (1 min); then repeat Steps 3 and 4 for a total of 40 cycles.
Each reaction mixture contains both SMN2-A minigene and GAPDH primers/probe sets (multiplex design), allowing simultaneous measurement of the levels of two transcripts.
Two SMN spliced products are generated from the SMN2 minigene. The first spliced product containing exon 7, corresponding to SMN2 full length mRNA, is referred to herein using the term “SMN2 minigene FL.” The second spliced product lacking exon 7 is referred to herein using the term “SMN2 minigene Δ7.”
The increase of SMN2 minigene FL mRNA relative to that in cells treated with vehicle control is determined from real-time PCR data using a modified ΔΔCt method (as described in Livak and Schmittgen, Methods, 2001, 25:402-8). The amplification efficiency (E) is calculated from the slope of the amplification curve for SMN2 minigene FL and GAPDH individually. The abundances of SMN2 minigene FL and GAPDH are then calculated as (1+E)^−Ct, where Ct is the threshold value for each amplicon. The abundance of SMN2 minigene FL is normalized to GAPDH abundance. The normalized SMN2 minigene FL abundance from test compound-treated samples is then divided by normalized SMN2 minigene FL abundance from vehicle-treated cells to determine the level of SMN2 FL mRNA relative to vehicle control.
A general note: In qPCR the cycle at which signal appears reflects the starting amount.

The next experiment relates to Smn protein. In words: Smn protein assay (HTRF) in cultured cells (SMA patient fibroblasts GM03813). The class given is cell-based, human. Particulars: 48 hours; for EC1.5x for Smn protein expression: SMA patient fibroblast cells (GM03813), HTRF, 7-point concentration data, concentration producing 1.5 times Smn protein vs DMSO vehicle control; for maximum fold (Fold) increase of Smn protein: SMA patient fibroblast cells, 7-point concentration curve, relative to vehicle control. The method, then:
The Smn HTRF (homogeneous time resolved fluorescence) assay is used to quantify the level of Smn protein in SMA patient fibroblast cells treated with test compounds.
Cells are thawed and cultured in DMEM-10% FBS for 72 hours. Cells are trypsinized, counted and re-suspended to a concentration of 25,000 cells/mL in DMEM-10% FBS. The cell suspension is plated at 5,000 cells per well in a 96 well microtiter plate and incubated for 3 to 5 hours. […] Test compounds are serially diluted 3.16-fold in 100% DMSO to generate a 7-point concentration curve. 1 μL of test compound solution is transferred to cell-containing wells and cells are incubated for 48 hours in a cell culture incubator (37° C., 5% CO2, 100% relative humidity). Triplicate samples are set up for each test compound concentration. After 48 hours, the supernatant is removed from the wells and 25 μL of the RIPA lysis buffer, containing protease inhibitors, is added to the wells and incubated with shaking at room temperature for 1 hour. 25 μL of the diluent is added and then 35 μL of the resulting lysate is transferred to a 384-well plate, where each well contains 5 μL of the antibody solution (1:100 dilution of anti-SMN d2 and anti-SMN kryptate in SMN reconstitution buffer). The plate is centrifuged for 1 minute to bring the solution to the bottom of the wells, then incubated overnight at room temperature. Fluorescence for each well of the plate at 665 nm and 620 nm is measured on an EnVision multilabel plate reader (Perkin-Elmer).
The normalized fluorescence signal is calculated for each sample, Blank and vehicle control well by dividing the signal at 665 nm by the signal at 620 nm. Normalizing the signal accounts for possible fluorescence quenching due to the matrix effect of the lysate. The ΔF value (a measurement of Smn protein abundance as a percent value) for each sample well is calculated by subtracting the normalized average fluorescence for the Blank control wells from the normalized fluorescence for each sample well, then dividing this difference by the normalized average fluorescence for the Blank control wells and multiplying the resulting value by 100. The ΔF value for each sample well represents the Smn protein abundance from test compound-treated samples. The ΔF value for each sample well is divided by the ΔF value for the vehicle control wells to calculate the fold increase in Smn protein abundance relative to the vehicle control.
(In TR-FRET formats the signal depends on donor and acceptor labels being close together.)

On to `C[C@H]1CN(c2ccc3cc(-c4cn5ccccc5n4)c(=O)oc3n2)CCN1.Cl` [Cpd 79, 3-(imidazo[1,2-a]pyridin-2-yl)-7-[(3S)-3-methylpiperazin-1-yl]-2H-pyrano[2,3-b]pyridin-2-one hydrochloride], for which the EC (1.5-fold) in experiment [1] is at most 0.1 µM. In the experiment on Smn protein, the “EC1.5x for Smn protein expression” value is recorded as “**** (an EC1.5×≦0.3 μM is indicated by four stars (****))” and the “maximum fold (Fold) increase of Smn protein” value (from here on “maximum fold (Fold) increase”) was “***** (a fold increase >1.65 is indicated by five stars (*****))”.
With `CC(C)(C)OC(=O)N1CCN(c2cc3oc(=O)c(-c4nc5c(Cl)cccc5s4)cc3cn2)CC1` [Cpd 8, tert-butyl 4-[3-(4-chloro-1,3-benzothiazol-2-yl)-2-oxo-2H-pyrano[3,2-c]pyridin-7-yl]piperazine-1-carboxylate], the EC (1.5-fold) in experiment [1] is 3 to 30 µM. Besides, in the experiment on Smn protein, the “EC1.5x for Smn protein expression” value is “* (An EC1.5× for Smn protein expression between >3 μM and ≦10 μM is indicated by one star (*))”; the “maximum fold (Fold) increase” value was “***** (a fold increase >1.65 is indicated by five stars (*****))”.
In the case of `Cc1cn2cc(-c3cc4ccc(N5CCN[C@@H](C)C5)nc4oc3=O)nc2c(C)n1` [Cpd 146, 3-(6,8-dimethylimidazo[1,2-a]pyrazin-2-yl)-7-[(3S)-3-methylpiperazin-1-yl]-2H-pyrano[2,3-b]pyridin-2-one], in experiment [1], the EC (1.5-fold) is at most 0.1 µM. In the experiment with Smn protein, the “EC1.5x for Smn protein expression” value is recorded as “**** (an EC1.5×≦0.3 μM is indicated by four stars (****))”; the “maximum fold (Fold) increase” value was “**** (a fold increase between >1.5 and ≦1.65 is indicated by four stars (****))”.
Take `Cc1cn2cc(-c3cc4ccc(N5C[C@H](C)NC[C@H]5C)nc4oc3=O)nc2cn1` [Cpd 102, 7-[(2R,5S)-2,5-dimethylpiperazin-1-yl]-3-(6-methylimidazo[1,2-a]pyrazin-2-yl)-2H-pyrano[2,3-b]pyridin-2-one]: in experiment [1], the EC (1.5-fold) is at most 0.1 µM. In the experiment on Smn protein, the “EC1.5x for Smn protein expression” value is reported as “**** (an EC1.5×≦0.3 μM is indicated by four stars (****))” and the “maximum fold (Fold) increase” value is “***** (a fold increase >1.65 is indicated by five stars (*****))”.
For `Cl.O=c1oc2nc(N3CCNCC3)ccc2cc1-c1cn2ccsc2n1` [Cpd 44, 3-(imidazo[2,1-b][1,3]thiazol-6-yl)-7-(piperazin-1-yl)-2H-pyrano[2,3-b]pyridin-2-one hydrochloride], the EC (1.5-fold) in experiment [1] was at most 0.1 µM. Also, in the experiment on Smn protein, the “EC1.5x for Smn protein expression” value is “** (an EC1.5× between >1 and ≦3 μM is indicated by two stars (**))”; the “maximum fold (Fold) increase” value is “*** (a fold increase between >1.35 and ≦1.5 is indicated by three stars (***))”.
Consider `Cl.O=c1oc2nc(N3CCNCC3)ccc2cc1-c1cn2ccccc2n1` [Cpd 28, 3-(imidazo[1,2-a]pyridin-2-yl)-7-(piperazin-1-yl)-2H-pyrano[2,3-b]pyridin-2-one hydrochloride], for which, in experiment [1], the EC (1.5-fold) was in the range of 0.1 to 0.3 µM. In addition, the “maximum fold (Fold) increase” value in the experiment on Smn protein is “*** (a fold increase between >1.35 and ≦1.5 is indicated by three stars (***))”.
For `Cl.O=c1oc2nc(N3CCNCC3)ccc2cc1-c1nc2c(Cl)cccc2s1` [Cpd 2, 3-(4-chloro-1,3-benzothiazol-2-yl)-7-(piperazin-1-yl)-2H-pyrano[2,3-b]pyridin-2-one hydrochloride], the EC (1.5-fold) in experiment [1] is at most 0.1 µM. In the experiment on Smn protein, the “EC1.5x for Smn protein expression” value is “**** (an EC1.5×≦0.3 μM is indicated by four stars (****))” and the “maximum fold (Fold) increase” value was “***** (a fold increase >1.65 is indicated by five stars (*****))”.
`Cc1ccn2cc(-c3cc4ccc(N5CCN[C@@H](C)C5)nc4oc3=O)nc2c1` [Cpd 58, 3-(7-methylimidazo[1,2-a]pyridin-2-yl)-7-[(3S)-3-methylpiperazin-1-yl]-2H-pyrano[2,3-b]pyridin-2-one]: the EC (1.5-fold) in experiment [1] was at most 0.1 µM. Further, in the experiment with Smn protein, the “EC1.5x for Smn protein expression” value is listed as “**** (an EC1.5×≦0.3 μM is indicated by four stars (****))”; the “maximum fold (Fold) increase” value was “**** (a fold increase between >1.5 and ≦1.65 is indicated by four stars (****))”.
`C[C@H]1CNCCN1c1ccc2cc(-c3cn4cccc(F)c4n3)c(=O)oc2n1` [Cpd 63, 3-(8-fluoroimidazo[1,2-a]pyridin-2-yl)-7-[(2S)-2-methylpiperazin-1-yl]-2H-pyrano[2,3-b]pyridin-2-one]: in experiment [1], the EC (1.5-fold) is at most 0.1 µM. Further, in the experiment with Smn protein, the “EC1.5x for Smn protein expression” value is “**** (an EC1.5×≦0.3 μM is indicated by four stars (****))”; the “maximum fold (Fold) increase” value was “**** (a fold increase between >1.5 and ≦1.65 is indicated by four stars (****))”.
`Cc1ccc2nc(-c3cc4ccc(N5C[C@@H]6C[C@H]5CN6)nc4oc3=O)cn2c1` [Cpd 124, 7-[(1S,4S)-2,5-diazabicyclo[2.2.1]hept-2-yl]-3-(6-methylimidazo[1,2-a]pyridin-2-yl)-2H-pyrano[2,3-b]pyridin-2-one]: the EC (1.5-fold) in experiment [1] was in the range of 0.1 to 0.3 µM. Moreover, in the experiment with Smn protein, the “EC1.5x for Smn protein expression” value was “*** (an EC1.5× between >0.3 μM and ≦1 μM is indicated by three stars (***))”; the “maximum fold (Fold) increase” value was “**** (a fold increase between >1.5 and ≦1.65 is indicated by four stars (****))”.
As for `Cl.O=c1oc2nc(N3CCNCC3)ccc2cc1-c1cn2cccnc2n1` [Cpd 112, 3-(imidazo[1,2-a]pyrimidin-2-yl)-7-(piperazin-1-yl)-2H-pyrano[2,3-b]pyridin-2-one hydrochloride], the EC (1.5-fold) in experiment [1] was in the range of 0.1 to 0.3 µM. Moreover, in the experiment on Smn protein, the “EC1.5x for Smn protein expression” value is “** (an EC1.5× between >1 and ≦3 μM is indicated by two stars (**))”; the “maximum fold (Fold) increase” value is “*** (a fold increase between >1.35 and ≦1.5 is indicated by three stars (***))”.
